Results from patent US20210038730A1, “PEPTIDE NANOFIBERS” (UNIVERSITY OF PORTSMOUTH HIGHER EDUCATION CORPORATION, priority 2018, published 2021).

Columns and labels:
[1] = Enzymatic stability in MDA-MB-231 cell homogenates
Description: Fresh blood, obtained from adult male Wistar rats, was collected in sterile the 170 I.U. lithium heparin-coated tubes (Vacutainer, BD Bioscience, UK). Blood was centrifuged immediately at 2,000 g for 15 minutes (4° C.) and supernatant was collected and diluted to 50% (v/v) with PBS. Livers and brains were obtained from adult male Wistar rats, and the tissues were blotted to dryness, weighed, sliced into pieces, and homogenised with ice-cold PBS (in 2 mL of buffer g^−1 of tissue) using the glass homogeniser. Then, tissue homogenates were centrifuged at 4,300 g for 1 hour (4° C.) and the supernatants collected. Glioblastoma cell homogenates were prepared using U-87 MG cells. Cells were cultured in Eagle's Minimum Essential Medium (EMEM) supplemented with 10% (v/v) heat-inactivated fetal bovine serum (FBS), 1% (v/v) of non-essential amino acids (NEAA) and 1 mM of sodium pyruvate in T75 flasks with a surface area of 75 cm^2 and maintained in a humidified atmosphere of 5% CO2 at 37° C. Breast cancer cell homogenates were prepared using MDA-MB-231 cells. Cells were cultured in Dulbecco's Modified Eagle Medium (DMEM) supplemented with high levels of glucose (4.5 g/L), 10% (v/v) heat-inactivated fetal bovine serum (FBS), 1% (v/v) of non-essential amino acids (NEAA) and penicillin and streptomycin (500 units/mL) in T75 flasks with a surface area of 75 cm^2 and maintained in a humidified atmosphere of 5% CO2 at 37° C. Media was changed for both cell lines every 3 to 4 days. After reaching confluence, cells were washed twice with Hank's Balanced Salt Solution (HBSS) and incubated with ˜2 mL of TrypLE Enzyme at 37° C. for ˜3 minutes. Then, complete media were added, and cells were centrifuged at 1,000 rpm for 5 minutes in C-28A centrifuge (Boeco, Germany). U-87 MG or MDA-MB-231 cells (˜10×10^6 cells mL^−1) were re-suspended in ice-cold PBS, and homogenised with a 2×5 second pulses with the probe sonicator (UP200S Ultrasonic processor, SciMed, 200 watts, amplitude of 60%). Cell debris were removed by centrifugation at 2,000 rpm for 5 minutes (Jouan B4i, Thermo Scientific, Paisley, UK). Supernatant was collected and stored at −80° C. Total protein concentration in the homogenates was determined using the Bradford assay with bovine serum albumin as a standard. Diluted plasma, tissue or cell homogenates were pre-warmed during ˜30 minutes at 37° C. Peptide stock solutions (Glu-GnRH, goserelin acetate and TPGnRH, 5 mM in PBS, 500 μL) were prepared and added to the homogenate solutions (120 μL). PAX-loaded nanofibers prepared at a ratio of 1:7.36 [PAX:TPGnRH consisting of 3 μmol (2.56 mg mL^−1) of PAX, 22.02 μmol (31.46 mg mL^−1) of TPGnRH], as previously described, and further diluted in PBS to achieve a concentration of 5 mM of TPGnRH and 500 nM of PAX (120 μL) were added to the homogenates. At various time intervals, an aliquot was collected (80 μL) and added to ice-cold ACN (80 μL) to quench the enzymatic activity. Samples were stored at −80° C. for at least 3 hours to maximise protein precipitation. Samples were vortexed for 15 minutes, centrifuged for 15 minutes at 12,000 rpm, and the supernatants were collected and analysed by RP-HPLC.

[2] = Circular dichroism, temperature and dilution stability of nanofibers; assay type: physicochemical; settings: CD, 15 to 50° C., dilutions 1:10-1:100
Description: Secondary structure was assessed using circular dichroism (CD). TPGnRH solutions (70 or 700 μM) were prepared in aqueous 0.9% sodium chloride and analysed at 20±0.1° C. using Applied Photophysics Pi180 spectropolarimeter (Surrey, UK). For the temperature-dependent studies, the peptide was incubated at a range of temperature (15 to 50° C.) and the spectra were collected at 5° C. intervals. To investigate the effect of dilution, peptide solutions were diluted in 0.9% (w/v) sodium chloride solution at 20° C. Data were collected every 1 nm over the wavelength range of 200-360 nm. X-ray diffraction (XRD) studies were carried out on stalks prepared by suspending drops of TPGnRH solutions (70 or 700 μM) between the ends of the wax-coated capillaries and allowing them to dry at room temperature. Stalks were vertically mounted onto a four-axis goniometer of a FR-E+X-Ray diffractomer (Rigaku, Sevenoaks, UK).

[3] = human, MDA-MB-231 breast cancer cell homogenate

CCCCCCCCCCCCCCCC(=O)Oc1ccc(C[C@H](NC(=O)[C@H](CO)NC(=O)[C@H](Cc2c[nH]c3ccccc23)NC(=O)[C@H](Cc2c[nH]cn2)NC(=O)[C@@H](N)CCC(=O)O)C(=O)NCC(=O)N[C@@H](CC(C)C)C(=O)N[C@@H](CCCNC(=N)N)C(=O)N2CCC[C@H]2C(=O)NCC(N)=O)cc1 [TPGnRH, Tyrosine (O-Palmitoyl)-Glu-GnRH]
Plateau ([1]; MDA-MB-231 cell homogenates): 325.8 µg/mL
k ([1]; MDA-MB-231 cell homogenates): 2.224 min⁻¹
AUC(0-t) at 4.03 mM [1, 3]: 105000 µg·h/mL
C0 at 4.03 mM [1, 3]: 710 µg/mL
temperatures at which nanofibers are physically stable [2]: < 40 °C
